Measured values taken from patent US9044491B2, “Method for improving blood flow using stilbenoid derivatives” (The Board of Trustees of the University of Arkansas, priority 2010, dated 2015).

Legend:
[1] = tested on: cecal ligation and puncture model (CLP); assay: RNS generation in renal tubules after CLP (rhodamine IVVM, anti-nitrotyrosine staining); assay type: in vivo, mouse; details: for rhodamine fluorescence (RNS generation in renal tubules): 18 hours after CLP
Description: The reactive nitrogen species peroxynitrite preferentially oxidizes DHR to fluorescent rhodamine that is visualized at 535 nm excitation and 590 nm emission. Still images exposed for 500 ms were captured from fields of view used to determine capillary perfusion. Fluorescence intensity was measured by ImageJ (National Institutes of Health, Bethesda, Md.) after first subtracting background fluorescence intensity. Representative images of fluorescence are shown in FIG. 10, panels (A)-(C), and the quantification of fluorescence is shown in FIG. 10 panel D. Data are expressed as arbitrary units/μg. CLP increased the generation of RNS in the renal tubules compared to Control (Sham). […] Antigens were unmasked using 10 mM citrate (pH 6.0) and 95° C. for 30 min. Gill's hematoxylin II was used as a counterstain. […] FIG. 12 (E)-(G) show nitrotyrosine staining. After CLP, nitrotyrosine was intense in renal tubules but not in glomeruli. Two doses of tRes blocked formation of nitrotyrosine adducts.

[2] = tested on: CLP mice; assay: Systemic serum nitric oxide levels after CLP; assay type: in vivo, mouse; details: CLP mice at 18 hours, two doses
Description: Serum nitrate and […] were determined using the Total Nitric Oxide Assay Kit (Assay Designs, Ann Arbor, Mich.) as directed by the manufacturer. Data were expressed as serum nitrate+nitrate concentration in […].

[3] = tested on: CLP mice; assay: Histology of renal tissue (PAS staining) after CLP; assay type: in vivo, mouse; details: two-dose regimen
Text: Renal tissue was also stained with periodic acid-Schiff staining to show the amount of injury to the tissue. The periodic acid-Schiff (PAS) stained sections were scored in a blinded, semi-quantitative manner. For each animal, at least 10 high power (400×) fields were examined. […] Representative PAS-stained sections are shown in FIG. 15, panels (A)-(C) 200× magnification and the tissue scores are shown in (D). CLP caused mild morphological changes characterized by […], cast formation, vacuolization, and tubule dilation. These changes were prevented by the two-dose regimen of tRes.

[4] = tested on: CLP or Control (Sham) mice; assay: Mean arterial pressure and heart rate by biotelemetry; assay type: in vivo, mouse
Description: Mean arterial pressure (MAP) and heart rate (HR) were monitored continuously in conscious mice using biotelemetry. Transmitters (Data Sciences International, Minneapolis Minn.) were implanted into the carotid artery under isoflurane anesthesia and the animals were allowed to recover for 48 h. Mice were re-anesthetized with isoflurane and received CLP or Control (Sham) surgery. Cardiovascular parameters were recorded for 10 s every 5 min.

[5] = tested on: cecal ligation and puncture model (CLP) of sepsis-induced renal injury; assay: Murine CLP model of sepsis, tRes 30 mg/kg (Example 5); assay type: in vivo, mouse; details: 30 mg/kg i.p. 30 min prior to and 6 hr post CLP; 18 hr post CLP
Text: Control (sham) mice underwent surgery but not CLP. Each treatment group contained 4-5 mice. Renal ONOO^− generation (rhodamine fluorescence) and renal peritubular capillary perfusion were quantified using intravital video microscopy (IVVM) on anesthetized mice in each of the treatment groups.

[6] = target: T1, human UGT1A1 (Homo sapiens, UniProt P22309); details: 250 μM
T1 sequence (P22309 26-533): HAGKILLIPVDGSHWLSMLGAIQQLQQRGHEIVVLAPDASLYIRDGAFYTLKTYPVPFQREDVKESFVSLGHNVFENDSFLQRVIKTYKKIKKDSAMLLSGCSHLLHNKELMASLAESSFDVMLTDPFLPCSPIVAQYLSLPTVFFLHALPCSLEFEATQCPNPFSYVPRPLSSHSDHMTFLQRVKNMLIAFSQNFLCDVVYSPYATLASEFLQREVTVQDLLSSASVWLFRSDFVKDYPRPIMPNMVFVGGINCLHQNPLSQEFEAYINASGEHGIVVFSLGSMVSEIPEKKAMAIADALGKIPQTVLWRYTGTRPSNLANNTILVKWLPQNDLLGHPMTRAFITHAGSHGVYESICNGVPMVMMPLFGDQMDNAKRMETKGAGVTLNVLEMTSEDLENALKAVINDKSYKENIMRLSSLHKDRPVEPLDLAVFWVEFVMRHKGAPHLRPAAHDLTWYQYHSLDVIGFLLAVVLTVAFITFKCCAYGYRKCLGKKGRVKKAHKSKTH
Description: (§1) Eight human recombinant UGT1A isoforms (UGT1A1, 1A3, 1A4, 1A6, 1A7, 1A8, 1A9, and 1A10; 5 μg) expressed as His-tag proteins in baculovirus-infected Sf9 insect cells and human liver microsomes (from one donor; HL2; 50 μg) and human intestinal microsomes (from two donors; HI36 and HI41; 50 μg) were evaluated for their ability to glucuronidate these four compounds. The concentrations of the substrate and co-substrate (i.e., UDP-GlcUA) were 250 μM and 4 mM, respectively. Glucuronidation products were analyzed by HPLC and LCMS/MS.
(§2) The kinetic constants of the glucuronidation reactions using recombinant human UGT1A1 and UGT1A10 were determined by measuring the enzyme activity in the presence of increasing concentrations of substrate (see FIG. 2).

[7] = tested on: CLP mice; assay: Survival study after CLP; assay type: in vivo, mouse; details: 10 mg/kg at 6, 12, and 18 hours following CLP, monitored for 48 h
[8] = tested on: CB1 receptors; assay type: biochemical, mouse; details: 10 μM compound, 30 min at 30° C.
[9] = tested on: CLP mice; assay: Serum creatinine and blood urea nitrogen after CLP; assay type: in vivo, mouse
Description: Acute Kidney Injury (AKI) is accompanied by elevated blood urea nitrogen levels, elevated creatinine levels, and low blood pressure. Serum creatinine and blood urea nitrogen (BUN) were measured using the QuantiChrom® Creatinine Assay kit and Urea Assay Kit (BioAssay Systems, Hayward Calif.).

[10] = target: T2, human UGT1A10 (Homo sapiens, UniProt Q9HAW8); details: 250 μM
T2 sequence (Q9HAW8 26-530): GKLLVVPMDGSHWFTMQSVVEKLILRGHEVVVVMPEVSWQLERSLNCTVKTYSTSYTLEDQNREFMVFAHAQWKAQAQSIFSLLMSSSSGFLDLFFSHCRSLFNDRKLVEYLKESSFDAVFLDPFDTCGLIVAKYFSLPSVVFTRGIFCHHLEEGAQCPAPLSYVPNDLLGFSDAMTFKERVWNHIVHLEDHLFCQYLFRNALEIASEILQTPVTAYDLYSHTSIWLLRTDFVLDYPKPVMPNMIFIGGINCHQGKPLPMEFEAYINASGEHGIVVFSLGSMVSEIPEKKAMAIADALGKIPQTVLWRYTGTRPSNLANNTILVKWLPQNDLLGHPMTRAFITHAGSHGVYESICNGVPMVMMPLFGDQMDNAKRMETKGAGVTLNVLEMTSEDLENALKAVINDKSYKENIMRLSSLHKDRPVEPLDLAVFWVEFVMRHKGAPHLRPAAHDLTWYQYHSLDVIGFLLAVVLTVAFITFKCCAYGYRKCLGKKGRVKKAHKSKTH
Description: as §1, §2

[11] = CLP mice, 3, 10, or 30 mg/kg i.p. at 5.5 hours
[12] = 10 mg/kg administered 6 hours after CLP surgery, single dose

Compound: Oc1ccc(/C=C/c2cc(O)cc(O)c2)cc1 [tRes, trans-resveratrol]
- rhodamine fluorescence (RNS generation in renal tubules) ([1]; second dose at 12 hours): completely blocked
- rhodamine fluorescence (RNS generation in renal tubules) ([1]; single dose at 6 hours): partially, but significantly reduced
- formation of nitrotyrosine adducts ([1]; CLP, two doses): blocked
- serum nitrate+nitrate concentration [2]: did not affect
- CLP-induced morphological changes of renal tissue (PAS) [3]: prevented
- heart rate (HR) [4, 11]: no effect
- mean arterial pressure (MAP) [4, 11]: no effect
- heart rate (HR) ([4]; Control (Sham) mice): slightly increase
- RNS generation in the kidney [5]: blocked
- renal capillary perfusion [5]: preserved
- glucuronide formation by UGT1A1 [6]: glucuronidated to 3-O— and 4′-O-Glucs
- survival in CLP mice [7]: significantly improve survival
- basal G-protein activity [8]: little effect
- BUN levels [9, 12]: not
- serum creatinine levels [9, 12]: significantly reduced
- BUN levels ([9]; additional dose given at 12 h): significant reduction
- serum creatinine levels ([9]; additional dose given at 12 h): significant reduction
- glucuronide formation by UGT1A10 [10]: glucuronidated to 3-O— and 4′-O-Glucs
